According to patent US20250205259A1, “CLASS OF 7-((FIVE-MEMBERED HETEROCYCLIC)METHYL)-8-CARBOXYLIC ACID-BENZO CYCLIC BORATE DERIVATIVES AND USES THEREOF” (priority 2022, published 2025):
Where two headings read alike, the source gives them in different places.

Legend:
NDM-1 = NDM-1 (Klebsiella pneumoniae, UniProt C7C422); assay: Inhibitory activity on MBL, fluorescent substrate FC-5; type: biochemical
NDM-5 = NDM-5 (Klebsiella pneumoniae, UniProt C7C422, M154L/V88L); assay: as above; type: biochemical
Sequence of NDM-5 (C7C422 29-270 V88L/M154L): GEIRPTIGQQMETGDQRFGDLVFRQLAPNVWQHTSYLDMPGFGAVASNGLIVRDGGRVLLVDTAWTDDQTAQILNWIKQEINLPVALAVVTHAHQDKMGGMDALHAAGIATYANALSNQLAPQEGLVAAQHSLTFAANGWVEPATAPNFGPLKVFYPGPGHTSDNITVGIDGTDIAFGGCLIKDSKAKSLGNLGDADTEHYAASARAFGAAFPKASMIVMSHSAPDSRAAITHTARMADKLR

IMP-1 = IMP-1 (Serratia marcescens, UniProt P52699); assay: as above; type: biochemical
Sequence of IMP-1 (P52699 19-246 limits assumed): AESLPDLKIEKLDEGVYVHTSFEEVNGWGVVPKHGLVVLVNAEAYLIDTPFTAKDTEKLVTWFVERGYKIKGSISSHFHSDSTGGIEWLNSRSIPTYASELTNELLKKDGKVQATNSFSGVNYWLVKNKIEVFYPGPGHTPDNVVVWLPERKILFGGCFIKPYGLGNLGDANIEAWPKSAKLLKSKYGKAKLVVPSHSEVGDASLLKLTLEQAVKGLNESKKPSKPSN

VIM-1 = VIM-1 (Pseudomonas aeruginosa, UniProt A0A0F7KYQ8); assay: as above; type: biochemical
VIM-2 = VIM-2 (Escherichia coli, UniProt Q5U7L7); assay: as above; type: biochemical; details: read-out: Inhibitory activity on MBL VIM-2 (IC50 class)
KPC-2 = KPC-2 (Klebsiella pneumoniae, UniProt Q9F663); assay: Inhibitory activity on SBL, fluorescent substrate FC-5; type: biochemical; details: for IC50: read-out: Inhibitory activity on SBL KPC-2 (IC50 class)
Sequence of KPC-2 (Q9F663 25-293 limits assumed): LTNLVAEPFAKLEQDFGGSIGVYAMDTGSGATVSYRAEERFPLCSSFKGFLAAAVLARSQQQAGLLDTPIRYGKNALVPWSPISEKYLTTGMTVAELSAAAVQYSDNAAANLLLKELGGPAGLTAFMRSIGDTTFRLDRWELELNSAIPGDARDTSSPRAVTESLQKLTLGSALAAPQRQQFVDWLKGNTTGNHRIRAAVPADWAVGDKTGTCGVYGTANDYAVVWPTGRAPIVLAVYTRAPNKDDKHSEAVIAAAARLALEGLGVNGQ

TEM-1 = TEM-1 (Escherichia coli, UniProt P62593); assay: as above; type: biochemical; details: for IC50: read-out: Inhibitory activity on SBL TEM-1 (IC50 class)
Sequence of TEM-1 (P62593 24-286 limits assumed): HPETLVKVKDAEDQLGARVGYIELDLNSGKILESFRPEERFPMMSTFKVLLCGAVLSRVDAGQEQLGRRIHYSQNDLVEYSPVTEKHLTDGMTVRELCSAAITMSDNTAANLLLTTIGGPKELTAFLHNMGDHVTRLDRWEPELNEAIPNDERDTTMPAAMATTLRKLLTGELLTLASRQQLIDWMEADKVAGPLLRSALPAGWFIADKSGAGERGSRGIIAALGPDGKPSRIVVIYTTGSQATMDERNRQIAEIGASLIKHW

CTX-M-14 = CTX-M-14 (Escherichia coli, UniProt Q9L5C7); assay: as above; type: biochemical; details: for IC50: read-out: Inhibitory activity on SBL CTX-M-14 (IC50 class)
Sequence of CTX-M-14 (Q9L5C7 entry or part of it): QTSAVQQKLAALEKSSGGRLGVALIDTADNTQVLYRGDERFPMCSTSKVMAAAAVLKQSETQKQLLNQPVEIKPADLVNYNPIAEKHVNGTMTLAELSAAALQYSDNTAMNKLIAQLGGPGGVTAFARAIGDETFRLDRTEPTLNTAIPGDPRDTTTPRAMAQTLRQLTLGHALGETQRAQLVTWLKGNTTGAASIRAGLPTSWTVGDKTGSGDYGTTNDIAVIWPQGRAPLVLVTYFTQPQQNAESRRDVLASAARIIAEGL

OXA-48 = OXA-48 (Klebsiella pneumoniae, UniProt Q6XEC0); assay: as above; type: biochemical; details: for IC50: read-out: Inhibitory activity on SBL OXA-48 (IC50 class)
Sequence of OXA-48 (Q6XEC0 23-265 limits assumed): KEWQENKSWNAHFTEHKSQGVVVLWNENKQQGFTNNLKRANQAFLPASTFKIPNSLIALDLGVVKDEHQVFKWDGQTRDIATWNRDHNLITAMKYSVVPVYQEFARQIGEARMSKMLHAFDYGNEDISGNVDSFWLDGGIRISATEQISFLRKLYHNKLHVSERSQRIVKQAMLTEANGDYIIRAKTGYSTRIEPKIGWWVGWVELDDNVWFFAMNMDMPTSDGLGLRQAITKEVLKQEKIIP

AmpC = AmpC (UniProt P24735); assay: as above; details: read-out: Inhibitory activity on SBL AmpC (IC50 class)
SHV-12 = target: T1, SHV-12 (UniProt P0AD64, L31Q/G234S/E235K, species not given); assay: as above; type: biochemical; details: for inhibitory activity on SHV-12 compared to control drugs: comparison in words; for IC50: read-out: Inhibitory activity on SBL SHV-12 (IC50 class)
T1 sequence (P0AD64 1-286 L31Q/G234S/E235K): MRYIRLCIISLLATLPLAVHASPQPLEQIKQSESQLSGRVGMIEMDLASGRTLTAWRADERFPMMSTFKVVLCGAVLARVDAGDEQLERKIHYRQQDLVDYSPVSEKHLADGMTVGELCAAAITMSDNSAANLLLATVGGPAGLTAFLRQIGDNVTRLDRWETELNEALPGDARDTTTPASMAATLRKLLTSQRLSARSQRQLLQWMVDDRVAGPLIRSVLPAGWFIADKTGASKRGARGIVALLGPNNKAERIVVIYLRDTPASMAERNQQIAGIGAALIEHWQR

[1] = read-out: Inhibitory activity on MBL NDM-1 (IC50 class)
[2] = read-out: Inhibitory activity on MBL NDM-5 (IC50 class)
[3] = read-out: Inhibitory activity on MBL IMP-1 (IC50 class)
[4] = VIM-1 and/or VIM-2, read-out: inhibitory activity at a nanomolar-level on VIM-1 and/or VIM-2
[5] = read-out: Inhibitory activity on MBL VIM-1 (IC50 class)
[6] = read-out: inhibitory activity at a nanomolar-level on NDM-1
[7] = read-out: inhibitory activity at a nanomolar-level on NDM-5
[8] = IMP-1 and/or IMP-4, read-out: inhibitory activity at a nanomolar-level on IMP-1 and/or IMP-4

Sequence of NDM-1 (C7C422 29-270 limits assumed): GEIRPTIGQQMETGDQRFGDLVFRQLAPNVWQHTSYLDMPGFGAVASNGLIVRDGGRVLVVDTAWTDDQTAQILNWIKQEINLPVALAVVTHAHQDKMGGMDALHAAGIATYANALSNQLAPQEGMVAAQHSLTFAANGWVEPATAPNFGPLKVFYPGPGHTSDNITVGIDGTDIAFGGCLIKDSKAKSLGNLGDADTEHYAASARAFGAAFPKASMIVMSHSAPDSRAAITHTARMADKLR

SMILES | IC50 (NDM-1; [1]) | IC50 (NDM-5; [2]) | IC50 (IMP-1; [3]) | IC50 (VIM-1; [4]) | IC50 (VIM-1; [5]) | IC50 (VIM-2) | IC50 (KPC-2) | IC50 (TEM-1) | IC50 (CTX-M-14) | IC50 (OXA-48) | IC50 (AmpC) | IC50 (NDM-1; [6]) | IC50 (NDM-5; [7]) | IC50 (IMP-1; [8]) | inhibitory activity on KPC-2 compared to avibactam (KPC-2; comparison in words) | inhibitory activity on TEM-1 compared to avibactam (TEM-1; comparison in words) | inhibitory activity on SHV-12 compared to control drugs (SHV-12) | IC50 (SHV-12) | inhibitory activity on CTX-M-14 compared to avibactam (CTX-M-14; comparison in words) | inhibitory activity on OXA-48 compared to avibactam (OXA-48; comparison in words)
NCCCc1cn(Cc2ccc3c(c2C(=O)O)OB(O)CC3)nn1 [Compound 9] | 1000 to 100000 nM | 10 to 1000 nM | 1000 to 100000 nM | < 1000 nM | 1000 to 100000 nM | 10 to 1000 nM | < 10 nM | 10 to 1000 nM | 10 to 1000 nM | < 10 nM | > 100000 nM |  |  |  |  |  |  |  |  | 
N=C(N)NCCc1cn(Cc2ccc3c(c2C(=O)O)OB(O)CC3)nn1 [Compound 10] | 10 to 1000 nM | 10 to 1000 nM | 1000 to 100000 nM | < 1000 nM | 1000 to 100000 nM | 10 to 1000 nM | < 10 nM | 10 to 1000 nM | 10 to 1000 nM | < 10 nM | > 100000 nM | < 1000 nM | < 1000 nM |  |  |  |  |  |  | 
NC1CCC(c2cn(Cc3ccc4c(c3C(=O)O)OB(O)CC4)nn2)CC1 (centres unmarked) [Compound 11] | 10 to 1000 nM | 10 to 1000 nM | 1000 to 100000 nM | < 1000 nM | 1000 to 100000 nM | 10 to 1000 nM | < 10 nM | 10 to 1000 nM | 10 to 1000 nM | < 10 nM | > 100000 nM | < 1000 nM | < 1000 nM |  |  |  |  |  |  | 
O=C(O)c1c(Cn2cc(-c3ccccc3)nn2)ccc2c1OB(O)CC2 [Compound 12] | 10 to 1000 nM | 10 to 1000 nM | 1000 to 100000 nM | < 1000 nM | 1000 to 100000 nM | 10 to 1000 nM | < 10 nM | 10 to 1000 nM | 10 to 1000 nM | < 10 nM | > 100000 nM | < 1000 nM | < 1000 nM |  |  |  |  |  |  | 
O=C(O)c1c(Cn2ncc3ccccc32)ccc2c1OB(O)CC2 [Compound 22] | 10 to 1000 nM | 10 to 1000 nM | 10 to 1000 nM | < 1000 nM | 10 to 1000 nM | 10 to 1000 nM | < 10 nM | 10 to 1000 nM | 10 to 1000 nM | < 10 nM | 1000 to 100000 nM | < 1000 nM | < 1000 nM | < 1000 nM |  |  |  |  |  | 
N=C(N)N1CC(c2cn(Cc3ccc4c(c3C(=O)O)OB(O)CC4)nn2)C1 [Compound 49] | 10 to 1000 nM | 10 to 1000 nM | 10 to 1000 nM |  | 1000 to 100000 nM | 10 to 1000 nM | < 10 nM | 10 to 1000 nM | 10 to 1000 nM | 10 to 1000 nM | 1000 to 100000 nM | < 1000 nM | < 1000 nM | < 1000 nM |  |  |  |  |  | 
O=C(O)c1c(Cn2ccc3cncnc32)ccc2c1OB(O)CC2 [Compound 55] | 10 to 1000 nM | 10 to 1000 nM | 10 to 1000 nM |  | 1000 to 100000 nM | 10 to 1000 nM | < 10 nM | < 10 nM | < 10 nM | 10 to 1000 nM | 1000 to 100000 nM | < 1000 nM | < 1000 nM | < 1000 nM |  |  |  |  |  | 
NCCc1ccc(-c2cn(Cc3ccc4c(c3C(=O)O)OB(O)CC4)nn2)cc1 [Compound 65] |  |  |  |  |  |  | < 10 nM |  |  |  | 1000 to 100000 nM |  |  |  |  |  |  |  |  | 
N=C(N)N1Cc2cnn(Cc3ccc4c(c3C(=O)O)OB(O)CC4)c2C1 [Compound 67] | 10 to 1000 nM | 1000 to 100000 nM | 1000 to 100000 nM |  | 1000 to 100000 nM | 10 to 1000 nM | < 10 nM | 10 to 1000 nM | 10 to 1000 nM | < 10 nM | > 100000 nM |  |  |  |  |  |  |  |  | 
NCCN1Cc2cn(Cc3ccc4c(c3C(=O)O)OB(O)CC4)nc2C1 [Compound 70] | 10 to 1000 nM | 10 to 1000 nM | 10 to 1000 nM | < 1000 nM | 10 to 1000 nM | 10 to 1000 nM | < 10 nM | < 10 nM | 10 to 1000 nM | 10 to 1000 nM |  | < 1000 nM | < 1000 nM | < 1000 nM | better or comparable | better or comparable | comparable to avibactam and tazobactam and superior to taniborbactam | < 10 nM | better or comparable | better or comparable
N#Cc1ccn(Cc2ccc3c(c2C(=O)O)OB(O)CC3)c1 [Compound 71] | 10 to 1000 nM | 10 to 1000 nM | 10 to 1000 nM | < 1000 nM | 10 to 1000 nM | 10 to 1000 nM | < 10 nM | < 10 nM | 10 to 1000 nM | 10 to 1000 nM |  | < 1000 nM | < 1000 nM |  |  |  | comparable to avibactam and tazobactam and superior to taniborbactam | < 10 nM |  | 
NC1CN(C(=O)c2cnn(Cc3ccc4c(c3C(=O)O)OB(O)CC4)c2)C1 [Compound 72] | 10 to 1000 nM | 10 to 1000 nM | 10 to 1000 nM | < 1000 nM | 10 to 1000 nM | 10 to 1000 nM | < 10 nM | < 10 nM | 10 to 1000 nM | 10 to 1000 nM |  | < 1000 nM | < 1000 nM |  |  |  | comparable to avibactam and tazobactam and superior to taniborbactam | < 10 nM |  | 
